Read-outs that look alike come from different tables or passages of the source.
How the values were obtained:
[1] = test system: Drosophila melanogaster; test: whole plant or invertebrate; assay type: in vivo
Description: Die insektiziden Wirkungen von tertiären heterocyclischen Aminen und die synergistischen Eigenschaften mit dem Phosphorsäureester Dimethoat und dem Carbamat Dimetilan, getestet an Drosophila melanogaster.
Die Versuche wurden in Petrischalen von 10 cm Durchmesser ausgeführt. Es wurden zunächst die gerade noch wirksamen Konzentrationen von Dimethoat und Dimetilan bestimmt. Für Dimethoat wurde 0,005 % und für Dimetilan 0,0001 % als günstige Versuchskonzentration ermittelt. Die Aminkomponente wurde mit 1 ml 0,05%iger Lösung + 1 ml Aceton auf insektizide Wirkung getestet. Zur Bestimmung des Synergismus wurde 1 ml 0,05%ige Aminlösung + 1 ml 0,005.%ige Dimethoatlösung, bzw. + 1 ml 0,0001%ige Dimetilanlösung pro Petrischale eingesetzt. Alle Verdünnungen wurden mit Aceton als Lösungsmittel hergestellt.
In den Petrischalen wurden die Lösungen am Boden gut verteilt und 30 min lang antrocknen lassen. In jede Petrischale wurden 20 mit Kohlendioxid betäubte Drosophila eingezählt. Alle 5 min, insgesamt 12 mal, wurde die Anzahl der toten Drosophila ausgezählt und notiert. Die Zahlen wurden aufsummiert und im Verhältnis zur möglichen Zahl an toten Drosophila in % angegeben, wobei der Tot aller Drosophila innerhalb der ersten 5 min 100 % Wirkung entspricht. Jeder Versuch wurde mit 3 Wiederholungen durchgeführt. In Tabelle 1 sind die Mittelwerte der Ergebnisse zusammengestellt.
Zur Ermittlung des synergistischen Faktors wurden die Einzelwerte pro Zeiteinheit durch die für Dimethoat, bzw. Dimetilan für die jeweilige Zeiteinheit gefundenen Werte dividiert. Die Werte für jede Zeiteinheit wurden summiert und durch die Anzahl der Zeiteinheiten dividiert. Die Versuche wurden bei sonst stets gleichbleibenden Bedingungen bei Temperaturen von 20 - 22°C ausgeführt. Die Kontrollversuche zeigten bei Versuchsabschluß stets 0 % Mortalität. Hat die Substanz selbst eine insektizide Wirkung, so wurden die Wirkungsfaktoren für Dimethoat und Dimetilan nach Abzug des Substanzwertes berechnet und in der Tabelle aufgeführt.
Im Beispiel 1 war das Verhältnis von Insektizid und erfindungsgemäßem Amin 1 : 10 in den Gemischen mit Dimethoat. In der Tabelle 2 sind Verhältnisse von 1 : 1, 1 : 2 und 1 : 0,2 bei Versuchen mit Dimethoat aufgeführt, dabei wurde das Dimethoat immer in einer Konzentation von 0,005 % eingesetzt. Die Tabelle zeigt, daß auch bei diesen Verhältnissen noch eine gute synergistische Wirkung vorhanden ist, und es keineswegs einer großen überdosierung des Amins bedarf.

[2] = test system: Kornkäfer (sitophilus granarius L); test: whole plant or invertebrate; assay type: in vivo; conditions: for mortality at 1000 µg/mL: read-out: Wirksamkeit in % Substanz allein
Procedure, shortened: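 Acetone solutions (2 ml) were dried as films in 15 cm Petri dishes and 25 grain weevils added per dish, with a filter inserted after 1 h. Dead beetles were counted at 3 h at 19–21 °C, and % mortality and the synergistic factor were derived.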

[3] = 1 ml 0,05%ige amine solution + 1 ml 0,0001%ige Dimetilan solution
[4] = 1 ml 0,05%ige amine solution + 1 ml 0,005 %ige Dimethoat solution (Dimethoat : amine 1 : 10)
[5] = 1 ml 0,05%ige amine solution + 1 ml Aceton per dish, 20 flies, dead counted every 5 min, 12 times, mean values
[6] = amine 0,05 % + Dimethoat 0,005 %, calculated after subtracting the amine's own effect
[7] = amine 0,05 % + Dimetilan 0,0001 %, calculated after subtracting the amine's own effect
[8] = amine 1 mg/ml + Ripcord 0,01 mg/ml
[9] = amine 1 mg/ml in Aceton mixed 1 : 1 with Aceton, 2 ml per dish, 25 weevils, dead counted after 3 h
[10] = amine 1 mg/ml mixed 1 : 1 with Ripcord 0,01 mg/ml, 3 h
[11] = amine 1 mg/ml mixed 1 : 1 with Talcord 0,01 mg/ml, 3 h
[12] = Drosophila melanogaster, 1 ml 0,05%ige amine solution + 1 ml Aceton per dish, 20 flies, dead counted every 5 min, 12 times, mean values, read-out: Wirksamkeit in % Substanz allein
[13] = Sitophilus granarius, amine 1 mg/ml in Aceton mixed 1 : 1 with Aceton, 2 ml per dish, 25 weevils, dead counted after 3 h
[14] = amine 1 mg/ml + Talcord 0,01 mg/ml
[15] = drosophila melanogaster, in vivo
[16] = sitophilus granarius, in vivo, 3 h
[17] = Pyrethroid : Amin 1 : 10, amine 0,1 mg/ml, 180 min

Structure (SMILES) | Wirksamkeit in % Substanz +Dimeti-lan [1, 3] | Wirksamkeit in % Substanz +Dimethoat [1, 4] | Wirksamkeit in % Substanz allein [1, 5] | Faktor der Wirkungssteigerung bei Dime-methoat [1, 6] | Faktor der Wirkungssteigerung bei Dimi-tilan [1, 7] | Synergistischer Faktor bei Ripcord [2, 8] | Wirksamkeit in % Substanz allein [2, 9] | Wirksamkeit in % Substanz +Ripcord [2, 10] | Wirksamkeit in % Substanz +Talcord [2, 11] | mortality at 0.05 % [1, 12] | mortality at 1000 µg/mL [2, 13] | Synergistischer Faktor bei Talcord [2, 14] | other results
C(CCCCN1CCOCC1)CCCN1CCOCC1 [1,8-N,N-Dimorpholino-octan] | 10,4% | 23,8% | 1,3% | 2,62 | 3,64 | 1,56 | 44,0% | 93,2% | 50,8% |  |  |  | 
C(=Cc1ccccc1)CN1CCCC1 [1-Cinnamyl-pyrrolidin] | 55,4% | 5,8% |  |  | 22,2 | 3,08 |  | 97,2% | 30,8% | 0% | 0% | 3,17 | 
CCCCOC(CN1CCOCC1)OCCCC [2-N-Morpholino-ethyl-di-butyl-acetal] |  |  |  |  |  |  |  |  |  |  |  |  | Wirksamkeit in % Substanz +Dimethoat [1, 15]: 17,9%; Wirksamkeit in % Substanz +Dimeti-lan [1, 15]: 3,3%; Wirksamkeit in % Substanz allein [1, 15]: 0,4%; Faktor der Wirkungssteigerung bei Dime-methoat ([1]; in vivo): 2,03; Faktor der Wirkungssteigerung bei Dimi-tilan ([1]; in vivo): 1,16; Synergistischer Faktor bei Ripcord ([2]; in vivo): 3,17; Synergistischer Faktor bei Talcord ([2]; in vivo): 10,31; Wirksamkeit in % Substanz +Ripcord [2, 16]: 100%; Wirksamkeit in % Substanz +Talcord [2, 16]: 100%; Wirksamkeit in % Substanz allein [2, 16]: 0%
CCCCCC(CCCCC)N1CCCC1 [6-N-Pyrrolidino-undecan] | 75,8% | 54,2% | 39,6% | 1,70 | 14,48 | 1,90 | 0% | 60,0% | 58,8% |  |  | 6,06 | 
CCCCCCCCCCN1CCCCC1CC (stereo not shown) [N-1-Decyl-2-ethyl-piperidin] | 56,3% | 55,8% |  | 2,42 | 8,52 |  |  |  |  | 35% |  |  | 
CCCCCCCCCCN1CCCCC1 [N-1-Decyl-piperidin] |  |  |  |  |  |  |  |  |  |  |  |  | mortality at 0.005 % ([1]; Drosophila melanogaster, amine 0,005 %, read-out: Sub-stanz allein): 0%; Substanz + Dime-thoat ([1]; amine 0,005 % + Dimethoat 0,005 %, Dimethoat : Amin 1 : 1): 45,4%; Faktor der Wirkungs-steigerung ([1]; amine 0,005 %, Dimethoat : Amin 1 : 1): 5,28; Synergistischer Faktor bei Ripcord ([2]; Pyrethroid : Amin 1 : 10): 3,09; Synergistischer Faktor bei Talcord ([2]; Pyrethroid : Amin 1 : 10): 6,72; % Wirkung Substanz +Ripcord [2, 17]: 97,2%; % Wirkung Substanz +Talcord [2, 17]: 65,2%; mortality at 100 µg/mL ([2]; Sitophilus granarius, 3 h, amine 0,1 mg/ml (as for Pyrethroid : Amin 1 : 10), read-out: % Wirkung Substanz allein): 0%
CCCCCCCCCCN1CCCC1 [N-1-Decyl-pyrrolidin] | 4,8% | 17,1% |  | 1,65 |  |  |  | 100,0% | 100,0% | 2.9% | 81.6% | 1,90 | 
C=CC(C)(CCC=C(C)C)N1CC1 (stereo not shown) [N-1-Linalyl-aziridin] | 0,42% | 21,7% | 0% | 2,67 |  | 2,99 | 0% | 97,2% | 65,2% |  |  | 6,72 | 
C=CC(C)(CCC=C(C)C)N1CCOCC1 (stereo not shown) [N-1-Linalyl-morpholin] | 20,0% | 30,8% | 11,7% | 2,22 | 3,32 | 2,92 | 0% | 92,0% | 33,2% |  |  | 3,42 | 
CCCCCCCCCCCCCCN1CCOCC1 [N-1-Tetradecyl-morpholin] | 2,5% | 57,1% |  | 6,64 |  | 2,03 |  | 64,0% | 5,2% | 0% | 0% |  | 
CCCCCCCCCCCCCN1CCCCC1 [N-1-Tridecyl-piperidin] | 2,3% | 54,6% |  | 6,35 |  | 3,05 |  | 96,0% | 17,2% | 0% | 0% | 1,77 | mortality at 0.01 % ([1]; Drosophila melanogaster, amine 0,01 %, read-out: Sub-stanz allein): 0%; mortality at 0.05 % ([1]; Drosophila melanogaster, amine 0,05 %, read-out: Sub-stanz allein): 0%; Substanz + Dime-thoat ([1]; amine 0,01 % + Dimethoat 0,005 %, Dimethoat : Amin 1 : 2): 42,9%; Faktor der Wirkungs-steigerung ([1]; amine 0,01 %, Dimethoat : Amin 1 : 2): 4,99; Substanz + Dime-thoat ([1]; amine 0,05 % + Dimethoat 0,005 %, Dimethoat : Amin 1 : 10): 54,6%; Faktor der Wirkungs-steigerung ([1]; amine 0,05 %, Dimethoat : Amin 1 : 10): 6,35
C(=CC1CCCCC1)CN1CCCC1 [N-(3-Cyclohexyl-propen-(2))-pyrrolidin] | 0% | 22,5% | 0% | 2,86 |  |  |  |  |  |  |  |  | 
CCCCCCCCCCN1CCCCC1C (stereo not shown) [N-Decyl-2-methyl-piperidin] | 77,9% | 66,7% |  |  | 2,87 |  |  |  |  | 61.3% |  |  | 

Reference: patent EP0029617A1, “Use of tertiary heterocyclic amines as synergists in pesticides; derivatives of cycloamines” (priority 1979, dated 1981)
